The source of these data is ChEMBL document CHEMBL5506004, “Optimizing drug-like properties of selective butyrylcholinesterase inhibitors for cognitive improvement: Enhancing aqueous solubility by disrupting molecular plane” (Eur J Med Chem, 2024).

Active and inactive are the calls of the source. The rule behind the calls is not given here.

One series deals with Mus musculus. Nature of the series: Cognitive enhancing effect in Amyloid beta (1 to 42)-treated ICR mouse assessed as spontaneous decision behaviour at 10 mg/kg, po administered daily measured after 13 days by Y-maze test. It is filed as functional, organism-based. The following applies: time 13.0 day.
The nature of series [1]: Acute toxicity in ICR mouse assessed as animal growth at 1 g/kg, IG. The settings on record: in vivo, po, 1000 mg/kg.
A short description of series [2]: Oral bioavailability in Sprague-Dawley rat at 10 mg/kg measured for 1 to 1440 mins by LC-MS/MS analysis. The following applies: in vivo, time 1-1440 min. It is filed as ADME, organism-based.
The next series deals with T1, Cytochrome P450 1A2 (Homo sapiens, UniProt P05177).
T1 sequence (P05177 whole entry): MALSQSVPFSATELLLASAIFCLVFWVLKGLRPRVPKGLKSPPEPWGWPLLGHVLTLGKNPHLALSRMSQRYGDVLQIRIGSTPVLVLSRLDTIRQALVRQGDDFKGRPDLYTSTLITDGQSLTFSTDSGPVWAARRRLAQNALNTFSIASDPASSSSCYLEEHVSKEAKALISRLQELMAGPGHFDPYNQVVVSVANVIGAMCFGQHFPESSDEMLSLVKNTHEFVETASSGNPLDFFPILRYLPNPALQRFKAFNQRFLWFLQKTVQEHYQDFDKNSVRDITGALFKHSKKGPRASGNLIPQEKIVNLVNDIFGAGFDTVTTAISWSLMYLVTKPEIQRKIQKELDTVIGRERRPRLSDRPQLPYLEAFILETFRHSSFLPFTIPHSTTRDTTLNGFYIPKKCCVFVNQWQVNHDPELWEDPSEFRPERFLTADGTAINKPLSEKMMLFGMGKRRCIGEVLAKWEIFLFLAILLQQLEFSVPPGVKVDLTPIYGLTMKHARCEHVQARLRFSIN
Nature of the series: Inhibition of CYP1A2 in human liver microsomes at 10 uM in presence of NADPH-regenerating system by LC-MS/MS analysis. The series is classed as ADME, Microsome. (In general: Liver microsomes are vesicles of endoplasmic reticulum, rich in cytochrome P450 enzymes.)

A short description of series [3]: Cmax in plasma of ICR mouse at 10 mg/kg, po measured for 10 to 480 mins by spectroscopy. The series is classed as ADME, organism-based. The settings on record: time 10-480 min.
Series [4] in a line: AUC (0 to t) in brain of ICR mouse at 10 mg/kg, po measured for 10 to 480 mins by spectroscopy. It is filed as ADME, organism-based. The settings on record: time 10-480 min.
Series [5] can be described thus: MRT (infinity) in Sprague-Dawley rat at 10 mg/kg, po measured for 1 to 1440 mins by LC-MS/MS analysis. It is filed as ADME, organism-based. The following applies: in vivo, time 1-1440 min.
Series [6] in a line: Toxicity in Amyloid beta (1 to 42)-treated ICR mouse assessed as drug tolerance at 10 mg/kg, po administered daily for 12 days. The series is classed as organism-based. The settings on record: in vivo, 288 h, time 12 day.
Series [7] in a line: Tmax in Sprague-Dawley rat at 10 mg/kg, po measured for 1 to 1440 mins by LC-MS/MS analysis. The series is classed as ADME, organism-based. The settings on record: in vivo, time 1-1440 min.
Series [8] can be described thus: Cytotoxicity against human L02 cells assessed as survival rate at 100 uM incubated for 24 hrs by MTT assay relative to control. It is filed as toxicity, cell-based. The following applies: read-out: Survival. (In general: Tetrazolium assays rely on reduction of a dye to a coloured formazan, in cell work by metabolically active cells.)
The next series concerns the target hERG (KCNH2) (Homo sapiens, UniProt Q12809). Nature of the series: Inhibition of hERG at 10 uM by manual patch clamp assay relative to control. It is filed as toxicity.
The nature of series [9]: Half life in Sprague-Dawley rat at 10 mg/kg, po measured for 1 to 1440 mins by LC-MS/MS analysis. It is filed as ADME, organism-based. The following applies: in vivo, time 1-1440 min.
A further series deals with Cholinesterase (Homo sapiens, UniProt P06276). Nature of the series: Inhibition of human BChE using BTC iodide as substrate preincubated for 5 mins followed by substrate addition measured after 2 mins by Ellman's method. In general terms: In Ellman's method for cholinesterases, released thiocholine reacts with DTNB.
Chain of Cholinesterase (P06276 whole entry): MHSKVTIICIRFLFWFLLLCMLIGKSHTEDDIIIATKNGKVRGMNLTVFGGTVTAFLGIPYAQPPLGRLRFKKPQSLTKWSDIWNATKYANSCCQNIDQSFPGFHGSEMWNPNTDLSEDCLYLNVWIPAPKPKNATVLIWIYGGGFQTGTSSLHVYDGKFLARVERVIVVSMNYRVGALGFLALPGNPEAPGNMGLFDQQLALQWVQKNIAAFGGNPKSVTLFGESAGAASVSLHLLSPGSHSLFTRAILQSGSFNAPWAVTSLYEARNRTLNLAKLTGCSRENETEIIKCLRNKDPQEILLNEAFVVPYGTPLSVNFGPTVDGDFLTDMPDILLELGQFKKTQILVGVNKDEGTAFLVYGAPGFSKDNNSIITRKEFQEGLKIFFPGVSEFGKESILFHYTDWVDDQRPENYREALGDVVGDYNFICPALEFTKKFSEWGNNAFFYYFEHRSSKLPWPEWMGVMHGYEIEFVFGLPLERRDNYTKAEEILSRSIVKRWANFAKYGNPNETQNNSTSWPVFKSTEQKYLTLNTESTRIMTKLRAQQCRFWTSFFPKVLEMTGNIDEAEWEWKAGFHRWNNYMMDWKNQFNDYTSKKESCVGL
The next series addresses CYP2C19 (Homo sapiens, UniProt P33261). Nature of the series: Inhibition of CYP2C19 in human liver microsomes at 10 uM in presence of NADPH-regenerating system by LC-MS/MS analysis relative to control. The series is classed as ADME, Microsome.

Chain of hERG (KCNH2) (Q12809 whole entry): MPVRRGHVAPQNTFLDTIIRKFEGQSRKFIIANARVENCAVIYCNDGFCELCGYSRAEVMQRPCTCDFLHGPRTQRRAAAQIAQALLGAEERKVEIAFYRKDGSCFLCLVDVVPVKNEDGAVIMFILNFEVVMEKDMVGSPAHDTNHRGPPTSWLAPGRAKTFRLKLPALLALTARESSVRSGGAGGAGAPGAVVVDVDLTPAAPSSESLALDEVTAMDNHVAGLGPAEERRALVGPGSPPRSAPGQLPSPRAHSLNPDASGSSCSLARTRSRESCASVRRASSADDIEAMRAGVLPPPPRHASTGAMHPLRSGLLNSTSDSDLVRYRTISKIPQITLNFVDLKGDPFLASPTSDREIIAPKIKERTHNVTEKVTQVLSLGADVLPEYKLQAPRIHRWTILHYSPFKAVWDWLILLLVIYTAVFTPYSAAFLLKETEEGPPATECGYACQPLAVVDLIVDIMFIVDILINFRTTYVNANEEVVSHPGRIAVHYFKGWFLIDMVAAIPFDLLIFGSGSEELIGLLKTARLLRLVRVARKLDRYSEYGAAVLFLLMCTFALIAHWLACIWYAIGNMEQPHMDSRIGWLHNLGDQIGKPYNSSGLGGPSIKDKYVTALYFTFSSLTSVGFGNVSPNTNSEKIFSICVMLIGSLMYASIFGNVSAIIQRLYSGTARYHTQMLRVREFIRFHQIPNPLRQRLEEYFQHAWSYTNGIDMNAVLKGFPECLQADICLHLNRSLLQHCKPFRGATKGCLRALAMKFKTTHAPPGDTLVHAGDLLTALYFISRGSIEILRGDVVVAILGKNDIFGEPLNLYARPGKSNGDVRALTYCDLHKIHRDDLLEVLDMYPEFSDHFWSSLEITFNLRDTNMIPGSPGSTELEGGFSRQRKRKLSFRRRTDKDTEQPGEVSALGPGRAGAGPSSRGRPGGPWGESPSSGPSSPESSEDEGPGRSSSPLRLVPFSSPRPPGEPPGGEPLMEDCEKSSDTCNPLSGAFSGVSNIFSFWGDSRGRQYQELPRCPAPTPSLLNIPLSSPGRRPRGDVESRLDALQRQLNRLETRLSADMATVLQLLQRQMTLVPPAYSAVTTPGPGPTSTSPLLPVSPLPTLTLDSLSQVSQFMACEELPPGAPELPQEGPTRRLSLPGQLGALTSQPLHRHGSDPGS
Chain of CYP2C19 (P33261 whole entry): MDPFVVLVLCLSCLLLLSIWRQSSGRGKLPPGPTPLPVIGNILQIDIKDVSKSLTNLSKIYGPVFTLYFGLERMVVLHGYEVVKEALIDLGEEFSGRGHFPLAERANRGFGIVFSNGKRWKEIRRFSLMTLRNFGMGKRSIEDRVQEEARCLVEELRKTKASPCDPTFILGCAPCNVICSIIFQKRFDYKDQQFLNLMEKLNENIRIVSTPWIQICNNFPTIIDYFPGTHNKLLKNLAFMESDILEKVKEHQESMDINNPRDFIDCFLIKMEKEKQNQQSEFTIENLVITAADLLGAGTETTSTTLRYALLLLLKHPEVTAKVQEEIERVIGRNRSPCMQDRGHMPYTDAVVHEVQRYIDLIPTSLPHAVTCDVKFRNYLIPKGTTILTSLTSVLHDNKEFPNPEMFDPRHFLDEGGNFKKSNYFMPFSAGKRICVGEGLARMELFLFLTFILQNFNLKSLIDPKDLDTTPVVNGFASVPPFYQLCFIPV

A word on the bioavailability: it is the share of a dose that reaches the circulation, judged against a reference dose that is usually intravenous. High values mean good availability, low ones poor availability. Usually Cmax stands for the highest concentration seen after dosing. For orientation: AUC(0-t) means the area under the concentration-time curve up to a stated or last time point. A high value points to high exposure. The MRT inf is the average time that molecules of a dose stay in the body. What is called Tmax is the time at which the peak concentration occurs. Usually inhibition stands for the share of the control response that was lost under treatment. For orientation: half-life means the time in which the quantity being followed falls by half. Higher therefore signals slow loss. The IC50 is the concentration needed to halve the response being measured. Low values mean greater potency, high ones weaker potency. `Nc1nonc1-c1nc2ccccc2n1CC(=O)Nc1ccc(CCN2CCOCC2)cc1`: in the series on Mus musculus, the result was Active. The Activity entry in [1] and in series [6] was “Non-Toxic” in each case. The compound also displayed a bioavailability in series [2] of 48.2%. Further, the “inhibition (INH)” value on Cytochrome P450 1A2 is “Not Active”. For the same compound, in [3], the Cmax amounted to 1390 ng/mL. Also, the AUC(0-t) in [4] turned out to be 268 ng·h/mL. This compound showed an MRT inf in series [5] of 9.67 h. Moreover, the Tmax in series [7] was 0.389 h. In addition, in series [8], the viability at 24 h, 100 µM came out at 87.1%. Also, the inhibition at 10 µM is 25.5% against hERG (KCNH2) and 9.19% on CYP2C19. This compound also gave a half-life in series [9] of 6.77 h. The compound further registered an IC50 against Cholinesterase of 48.1 nM.
